system: not given; experiment: not given; set-up: method as in ref [8,16] (a number printed in a supplementary file, which may have a reference list of its own: not looked up in the article's list); settings: supplement ref [8,16]; cited from earlier work

SMILES | analgesic activity
COC(=O)Cc1nnc2n(c1=O)CCN2c1ccc(C)cc1 [Compound 41] | analgesic
CCOc1ccc(N2CCn3c2nnc(Cc2ccccc2Cl)c3=O)cc1 [Compound 114] | analgesic
Cc1ccc(N2CCn3c2nnc(Cc2ccccc2Cl)c3=O)cc1 [Compound 109] | analgesic
O=c1c(Cc2ccccc2Cl)nnc2n1CCN2c1ccccc1 [Compound 103] | analgesic
COC(=O)Cc1nnc2n(c1=O)CCN2c1ccc(OC)cc1 [Compound 42] | analgesic
O=c1c(-c2ccccc2)nnc2n1CCN2c1ccc(Cl)cc1 [Compound 91] | analgesic
NNC(=O)c1nnc2n(c1=O)CCN2c1ccccc1 [Compound 51] | analgesic
CCOc1ccc(N2CCn3c2nnc(Cc2ccccc2)c3=O)cc1 [Compound 112] | analgesic

system: not listed separately; experiment: Biomimetic IAM chromatography (log kw, IAM); type: physicochemical; settings: IAM.PC.DD2 column, buffered acetonitrile, pH 7.4, 25 °C, extrapolated to buffer
Experimental: High performance liquid chromatography (HPLC) measurements were performed on a Shimadzu Vp liquid chromatographic system (Shimadzu, Izabelin, Poland). This instrument was equipped with LC 10AT pump, SPD 10A ultraviolet-visible detector, SCL 10A system controller, CTO-10 AS chromatographic oven, and a Rheodyne injector valve with a 20 μL loop. As the stationary phase Regis IAM.PC.DD2 column, 100 × 4.6 mm i.d., 10 μm (Morton Grove, IL, USA) was applied.
Buffered acetonitrile mixtures were used as effluents. Acetonitrile concentration, expressed as a volume fraction, was varied within a range from 0.2 to 0.5, with a constant step of 0.1. The buffer was prepared from 0.01 mol L^−1 solutions of Na2HPO4 and citric acid, and a pH value of 7.4 was fixed before mixing with an organic modifier. The flow rate was 1.3 mL min^−1. Each compound sample was dissolved in acetonitrile to obtain a concentration of 0.005 mg mL^−1, and each solute peak was detected under ultraviolet light at a wavelength of λmax = 254 nm. Each measurement was performed at a constant temperature (25 °C) at least three times. The dead time values were measured from sodium chloride peaks.
From among 126 heterocyclic compounds evaluated in this work (Table 1), 89 structures have been investigated previously on the IAM column: these are molecules from groups III, IV, V, VI, VII, VIII, IX, XI, XIII, and XV [21, 22, 23]. The remaining ones, i.e., 37 compounds from groups I, II, X, XII and XIV, were tested in this study for the first time using the biomimetic IAM chromatographic technique. To calculate the log kw values (i.e., the logarithms of retention parameter in the buffer as the mobile phase), the retention parameters, logs k (k = (tr − t0)/t0; where tr is the solute retention time, and t0 is a dead time), that were measured for all tested compounds, were used according to Soczewiński-Wachtmeister’s equation (Equation (5)): (5) log k=logtr−t0/t0=log kw−sφ where φ denotes the volume fraction of acetonitrile as organic modifier in the mobile phase, and kw means the retention parameter corresponding to buffer as the mobile phase. The log kw values were evaluated as linear regression coefficients (Table 2).

SMILES | log kw, IAM
Clc1ccc(N2CCn3c(COc4cc(Cl)c(Cl)cc4Cl)nnc32)cc1 [Compound 14] | 2.55
Cc1cc(Cl)ccc1OCc1nnc2n1CCN2c1ccc(Cl)cc1 [Compound 11] | 2.14
O=c1c(-c2ccc([N+](=O)[O-])cc2)nnc2n1CCN2c1ccc(Cl)c(Cl)c1 [Compound 101] | 3.22
COc1ccc(N2CCn3c(COc4ccc(Cl)cc4)nnc32)cc1 [Compound 7] | 0.06
Cc1ccc(N2CCn3c2nnc(-c2cccs2)c3=O)cc1 [Compound 74] | 1.94
Cc1ccccc1N1CCn2c1nnc(-c1cccs1)c2=O [Compound 73] | 1.54
Clc1cccc(N2CCn3cnnc32)c1 [Compound 4] | 0.64
O=c1c(-c2cccs2)nnc2n1CCN2c1ccc(Cl)cc1 [Compound 79] | 1.53
CCOc1ccc(N2CCn3c2nnc(CC(=O)NN)c3=O)cc1 [Compound 59] | 0.06
Cc1ccc(N2CCn3c2nnc(-c2ccc([N+](=O)[O-])cc2)c3=O)cc1 [Compound 95] | 1.83
Clc1ccc(N2CCn3c(COc4ccc(Cl)cc4Cl)nnc32)cc1 [Compound 12] | 2.25
Cc1cccc(N2CCn3c2nnc(-c2ccc([N+](=O)[O-])cc2)c3=O)c1C [Compound 97] | 1.78
Cc1cccc(N2CCn3c2nnc(-c2cccs2)c3=O)c1C [Compound 75] | 1.17
O=c1c(-c2cccs2)nnc2n1CCN2c1ccccc1 [Compound 72] | 1.64
O=c1c(-c2ccc([N+](=O)[O-])cc2)nnc2n1CCN2c1ccc(Cl)cc1 [Compound 100] | 2.52
COc1ccc(N2CCn3cnnc32)cc1 [Compound 3] | 0.10
O=c1c(-c2cccs2)nnc2n1CCN2c1cccc(Cl)c1 [Compound 78] | 2.26

SMILES | log kw, IAM
O=c1c(-c2cccs2)nnc2n1CCN2c1ccc(Cl)c(Cl)c1 [Compound 80] | 2.68
O=c1c(-c2ccc([N+](=O)[O-])cc2)nnc2n1CCN2c1ccccc1 [Compound 93] | 1.92
c1ccc(N2CCn3cnnc32)cc1 [Compound 1] | 0.10
O=c1c(-c2ccc([N+](=O)[O-])cc2)nnc2n1CCN2c1cccc(Cl)c1 [Compound 99] | 2.02
NNC(=O)Cc1nnc2n(c1=O)CCN2c1ccc(Cl)cc1 [Compound 60] | 0.32
Clc1ccc(OCc2nnc3n2CCN3c2ccc(Cl)cc2)cc1 [Compound 10] | 1.86
Cc1ccccc1N1CCn2c1nnc(-c1ccc([N+](=O)[O-])cc1)c2=O [Compound 94] | 2.52
Cc1ccc(N2CCn3c2nnc(CC(=O)NN)c3=O)cc1 [Compound 57] | 0.13
c1ccc(OCc2nnc3n2CCN3c2ccccc2)cc1 [Compound 6] | 0.11
NNC(=O)Cc1nnc2n(c1=O)CCN2c1ccccc1 [Compound 56] | 0.40
COc1ccccc1N1CCn2c1nnc(-c1ccc([N+](=O)[O-])cc1)c2=O [Compound 96] | 1.78
Cc1ccc(N2CCn3cnnc32)cc1 [Compound 2] | 0.41
COc1ccccc1N1CCn2c1nnc(-c1cccs1)c2=O [Compound 76] | 1.50
Clc1ccc(N2CCn3cnnc32)cc1Cl [Compound 5] | 1.18
O=c1c(-c2cccs2)nnc2n1CCN2c1ccccc1Cl [Compound 77] | 1.75
O=c1c(-c2ccc([N+](=O)[O-])cc2)nnc2n1CCN2c1ccccc1Cl [Compound 98] | 2.16
Cc1cc(Cl)ccc1OCc1nnc2n1CCN2c1ccccc1 [Compound 8] | 0.09

system: human cancer cells; experiment: not given; set-up: method as in ref [3-7,9-15,17-21] (a number printed in a supplementary file, which may have a reference list of its own: not looked up in the article's list); settings: supplement ref [3-7,9-15,17-21]; cited from earlier work

SMILES | antitumor activity
CCOC(=O)c1nnc2n(c1=O)CCN2c1ccc(Cl)c(Cl)c1 [Compound 39] | antitumor
CCOc1ccc(N2CCn3c2nnc(Cc2ccccc2Cl)c3=O)cc1 [Compound 114] | antitumor
Cc1ccc(N2CCn3c2nnc(Cc2ccccc2Cl)c3=O)cc1 [Compound 109] | antitumor
CCOC(=O)c1nnc2n(c1=O)CCN2c1cccc(Cl)c1 [Compound 37] | antitumor
CCOc1ccc(N2CCn3c2nnc(Cc2ccc(Cl)cc2)c3=O)cc1 [Compound 116] | antitumor
NNC(=O)c1nnc2n(c1=O)CCN2c1cccc(Cl)c1 [Compound 54] | antitumor

system: central nervous system of mice; experiment: not given; set-up: method as in PMID 24157086; settings: preliminary tests, ref [21]; cited from earlier work

SMILES | analgesic activity | toxicity
CCOc1ccc(N2CCn3c2nnc(Cc2ccccc2Cl)c3=O)cc1 [Compound 114] | analgesic activity | low toxicity
Cc1ccc(N2CCn3c2nnc(Cc2ccccc2Cl)c3=O)cc1 [Compound 109] | analgesic activity | low toxicity
O=c1c(Cc2ccccc2Cl)nnc2n1CCN2c1ccccc1 [Compound 103] | analgesic activity | low toxicity
CCOc1ccc(N2CCn3c2nnc(Cc2ccc(Cl)cc2)c3=O)cc1 [Compound 116] | analgesic activity | low toxicity

system: not given; experiment: not given; settings: IAM column; ref [21]; cited from earlier work

SMILES | log kw, IAM
NNC(=O)c1nnc2n(c1=O)CCN2c1ccccc1 [Compound 51] | −0.14
NNC(=O)c1nnc2n(c1=O)CCN2c1cccc(Cl)c1 [Compound 54] | 0.41

same assay, conditions: IAM column; ref [22]; cited from earlier work

SMILES | log kw, IAM
CC(C)c1nnc2n(c1=O)CCN2c1ccccc1Cl [Compound 31] | 0.65
CCOC(=O)c1nnc2n(c1=O)CCN2c1ccc(Cl)c(Cl)c1 [Compound 39] | 3.36
CCOC(=O)c1nnc2n(c1=O)CCN2c1cccc(Cl)c1 [Compound 37] | 1.73
CC(C)c1nnc2n(c1=O)CCN2c1ccc(Cl)c(Cl)c1 [Compound 34] | 1.67
O=c1c(C(F)(F)F)nnc2n1CCN2c1ccccc1Cl [Compound 19] | 0.88
CC(C)c1nnc2n(c1=O)CCN2c1ccc(Cl)cc1 [Compound 33] | 1.39
COc1ccccc1N1CCn2c1nnc(C(F)(F)F)c2=O [Compound 18] | 0.67

same assay, conditions: IAM column; ref [23]; cited from earlier work

SMILES | log kw, IAM
COC(=O)Cc1nnc2n(c1=O)CCN2c1ccc(C)cc1 [Compound 41] | 1.33
CCOC(=O)Cc1nnc2n(c1=O)CCN2c1ccccc1 [Compound 45] | 1.21
CCOC(=O)Cc1nnc2n(c1=O)CCN2c1ccc(Cl)c(Cl)c1 [Compound 50] | 2.42
CCOc1ccc(N2CCn3c2nnc(Cc2ccccc2Cl)c3=O)cc1 [Compound 114] | 2.51
Cc1ccc(N2CCn3c2nnc(Cc2ccccc2Cl)c3=O)cc1 [Compound 109] | 2.65
O=c1c(Cc2ccccc2Cl)nnc2n1CCN2c1ccccc1 [Compound 103] | 2.34
COC(=O)Cc1nnc2n(c1=O)CCN2c1ccc(OC)cc1 [Compound 42] | 0.81
O=c1c(-c2ccccc2)nnc2n1CCN2c1ccc(Cl)cc1 [Compound 91] | 2.57
CCOC(=O)Cc1nnc2n(c1=O)CCN2c1cccc(Cl)c1 [Compound 48] | 2.05
CCOc1ccc(N2CCn3c2nnc(Cc2ccccc2)c3=O)cc1 [Compound 112] | 2.11
CCOc1ccc(N2CCn3c2nnc(Cc2ccc(Cl)cc2)c3=O)cc1 [Compound 116] | 2.72

system: human cancer cells; experiment: not given; set-up: method as in ref [3,9,10,13,18-21] (a number printed in a supplementary file, which may have a reference list of its own: not looked up in the article's list); settings: supplement ref [3,9,10,13,18-21]; cited from earlier work

SMILES | mechanism of antiproliferative action: promoting apoptosis | mechanism of antiproliferative action: promoting necrosis | mechanism of antiproliferative action: promoting apoptotic caspases | mechanism of antiproliferative action: inducing DNA damage
CCOC(=O)Cc1nnc2n(c1=O)CCN2c1ccccc1 [Compound 45] | apoptosis | necrosis | – | –
CC(C)c1nnc2n(c1=O)CCN2c1ccccc1Cl [Compound 31] | – | – | promoting apoptotic caspases | –
CCOC(=O)Cc1nnc2n(c1=O)CCN2c1ccc(Cl)c(Cl)c1 [Compound 50] | apoptosis | necrosis | – | –
CC(C)c1nnc2n(c1=O)CCN2c1ccc(Cl)c(Cl)c1 [Compound 34] | – | – | promoting apoptotic caspases | –
O=c1c(-c2cccs2)nnc2n1CCN2c1ccc(Cl)c(Cl)c1 [Compound 80] | apoptosis | necrosis | – | –
CCOC(=O)Cc1nnc2n(c1=O)CCN2c1cccc(Cl)c1 [Compound 48] | apoptosis | necrosis | – | –
O=c1c(C(F)(F)F)nnc2n1CCN2c1ccccc1Cl [Compound 19] | – | – | promoting apoptotic caspases | –
CC(C)c1nnc2n(c1=O)CCN2c1ccc(Cl)cc1 [Compound 33] | – | – | promoting apoptotic caspases | –
COc1ccccc1N1CCn2c1nnc(C(F)(F)F)c2=O [Compound 18] | – | – | promoting apoptotic caspases | –
NNC(=O)c1nnc2n(c1=O)CCN2c1cccc(Cl)c1 [Compound 54] | apoptosis | – | – | DNA damage
Cc1cc(Cl)ccc1OCc1nnc2n1CCN2c1ccccc1 [Compound 8] | – | – | – | DNA damage
